# Patent publication US20240360146A1, “BRUTON'S TYROSINE KINASE AND MUTANT DEGRADER, COMPOSITION AND APPLICATION THEREOF” (HANGZHOU HEALZEN THERAPEUTICS CO., LTD., priority 2021, published 2024)
# How the values were obtained:
# BTK = target: T1, BTK (Homo sapiens, UniProt Q06187); test: BTK degradation activity test in Mino cells; type: cell-based; settings: 16 h incubation, Western blot or Elisa
# T1 construct: endogenous in cells; host or cells: Mino cells
# Outline: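 DC50 derived by curve fitting of BTK degradation rates versus untreated control across compound concentrations. Mino cells were exposed for 16 h; BTK levels in lysates, normalised via BCA protein, measured by Western blot or ELISA.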
# OCI-LY10 cells = test: Inhibitory activity on OCI-LY10 cell proliferation (MTS); type: cell-based; settings: Homo sapiens, 72 h
# Outline: (§1)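 Cells seeded at 10000/well, treated with compounds from 1000 nM (4-fold, 8 points) for 72 h (OCI-LY10) or 168 h (Mino) at 37° C. MTS added for 2 h, stopped with SDS, absorbance read at 490 and 650 nm; IC50 from dose-response fit.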
# [1] = Mouse absorption test (pharmacokinetic properties in mice); type: in vivo; settings: intragastric; for DNAUC: DNAUC = AUC/Dose; for Cmax: mouse, plasma, po
# Method: […] The blood collection time points for intragastric administration were 0.25, 0.5, 1, 2, 4, 6, 8, and 24 h. 0.5 mL of blood was taken with a capillary tube from the orbit, and placed in an EP tube containing EDTA anticoagulant. The EP tube was shaken gently for mixing uniformly, and centrifuged at 3500 rpm and 4° C. for 10 min. The supernatant, i.e., plasma, was taken. Analysis was performed using LC-MS/MS.
# Mino cells = test: Inhibitory activity on Mino cell proliferation (MTS); type: cell-based; settings: Homo sapiens, 168 h incubation
# Outline: as §1
# [2] = system: OCL-LY10 transplanted tumors; test: Chronic efficacy test, OCL-LY10 subcutaneous transplanted tumor model; type: in vivo; settings: NOD/SCID mice, intragastric 10 mg/kg, 3 weeks
# Method: NOD/SCID mice were subcutaneously inoculated with OCL-LY10 cells to establish a tumor model. When the tumors grew to about 100 mm^3, the mice were administered with drugs in groups. The mode of administration was as follows: the test compound was administered intragastrically at 10 mg/kg; The changes in body weight and tumor size of the mice were measured twice per week. After 3 weeks, the mice were sacrificed by cervical dislocation, and the efficacy of the compounds on transplanted tumors in OCL-LY10 mice was examined.
# BTK-C481S = target: T2, BTK-C481S (Homo sapiens, UniProt Q06187, C481S); test: BTK-C481S degradation activity test in HEK293 OE BTK-C481S cells; type: cell-based; settings: 24 h incubation, Western blot or Elisa
# T2 construct: expressed in transfected cells; host or cells: HEK293 OE BTK-C481S (overexpressing) cell line
# Method: HEK293 OE BTK-C481S cell line cells were seeded at 500,000 to 1,000,000 cells/well in a 6-well plate. The compounds were diluted to different concentrations and added to the plate, and after 24 h of incubation, the cells were harvested. After lysing the cells, the total protein concentration in each well was determined using the BCA method. The amount of BTK-C481S was determined using Western blot or Elisa method. The amount of undegraded BTKC481S protein at each drug concentration was compared with the amount of BTKC481S protein in the blank control group to calculate the degradation rate. The degradation curve was drawn based on the degradation rate at each concentration, and the half degradation concentration (DC50) was calculated by fitting.
# [3] = Stability of compounds in human liver microsome; type: in vitro ADME; settings: human liver microsomes, NADPH, 37° C., sampling 0-120 min; read-out: Human liver microsome T1/2
# Method: Compound to be tested: the compound to be tested (1 mg) was dissolved in DMSO (10 mL) to formulate to 0.1 mg/mL.
# Internal standard compound: the internal standard compound (1 mg) was dissolved in DMSO (10 mL), 10 μL was taken and diluted to 10 mL to formulate to 100 ng/mL.
# NADPH solution: NADPH (2.08 mg) was dissolved in PBS (50 μL) buffer to formulate to 50 mM.
# Under the condition of ice bath, 1 mg of human liver microparticles was add to PBS (1 mL) buffer, then NADPH (20 μL) was added, and incubated at 37° C. for 5 min. 10 μL of the compound to be tested was added, and then samples were taken at 0, 15, 30, 60 and 120 min respectively. 10 μL of the solution was taken with a pipette each time and added to 490 μL of the solution containing the internal standard compound. The resulting solution was vortexed and then placed on ice, and then sampling at another time point continues. All samples were centrifuged at 10,000 rpm for 10 min, and the supernatant was taken for LC/MS testing. The metabolism of the compound in liver microsomes was calculated based on the peak area.
# T1 sequence (Q06187 whole entry): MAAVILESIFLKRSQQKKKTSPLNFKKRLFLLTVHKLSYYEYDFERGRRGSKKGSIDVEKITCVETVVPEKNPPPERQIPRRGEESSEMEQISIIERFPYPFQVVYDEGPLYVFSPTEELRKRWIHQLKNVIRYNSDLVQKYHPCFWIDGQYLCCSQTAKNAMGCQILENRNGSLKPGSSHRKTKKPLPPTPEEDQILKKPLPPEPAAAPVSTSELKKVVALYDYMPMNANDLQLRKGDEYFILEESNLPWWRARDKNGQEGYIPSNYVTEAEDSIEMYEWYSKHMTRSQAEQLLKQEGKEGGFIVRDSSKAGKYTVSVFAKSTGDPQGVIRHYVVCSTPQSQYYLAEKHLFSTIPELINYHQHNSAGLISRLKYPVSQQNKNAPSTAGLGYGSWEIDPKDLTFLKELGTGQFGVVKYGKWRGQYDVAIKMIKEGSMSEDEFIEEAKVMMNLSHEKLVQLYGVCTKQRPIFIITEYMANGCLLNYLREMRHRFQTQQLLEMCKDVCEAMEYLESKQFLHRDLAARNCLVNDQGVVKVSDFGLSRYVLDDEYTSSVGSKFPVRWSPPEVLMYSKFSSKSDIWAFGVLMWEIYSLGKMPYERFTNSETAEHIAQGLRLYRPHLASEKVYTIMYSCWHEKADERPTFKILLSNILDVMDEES
# T2 sequence (Q06187 whole entry C481S): as the sequence (Q06187 whole entry) above, with C481S counted along it
SMILES,DC50 (BTK),IC50 (OCI-LY10 cells),DNAUC ([1]; 30 mg/kg),"Cmax ([1]; 30 mg/kg, class symbols)",DC50 (BTK-C481S),half-life at 0.97 µg/mL [3],Cmax ([1]; 30 mg/kg),DNAUC ([1]; 100 mg/kg),Cmax ([1]; 100 mg/kg),IC50 (Mino cells),TGI (%) [2]
"CN1CCN([C@@H]2CCCN(c3nnc(C(N)=O)c(Nc4ccc(C5CCN(CC6CCN(c7ccc8c(c7)C(=O)N(C7CCC(=O)NC7=O)C8=O)CC6)CC5)cc4)n3)C2)C1=O (stereo partly drawn) [Compound 123, 5-((4-(1-((1-(2-(2,6-dioxopiperidin-3-yl)-1,3-dioxoisoindolin-5-yl)piperidin-4-yl)methyl)piperidin-4-yl)phenyl)amino)-3-((R)-3-(3-methyl-2-oxoimidazolin-1-yl)piperidin-1-yl)-1,2,4-triazin-6-carboxamide]",< 1 nM,0.2 nM,1920 ng/ml*h/mpk,> 6000 ng/mL,< 10 nM,,,,,2.11 nM,95.66%
"CN1CCN([C@@H]2CCCN(c3nnc(C(N)=O)c(Nc4ccc(N5CCN(CC6CCN(c7ccc8c(c7)C(=O)N(C7CCC(=O)NC7=O)C8=O)C6)CC5)c(F)c4)n3)C2)C1=O (stereo partly drawn) [Compound 130, 5-((4-(4-((1-(2-(2,6-dioxopiperidin-3-yl)-1,3-dioxoisoindolin-5-yl)pyrrolidin-3-yl)methyl)piperazin-1-yl)-3-fluorophenyl)amino)-3-((R)-3-(3-methyl-2-oxoimidazolin-1-yl)piperidin-1-yl)-1,2,4-triazin-6-carboxamide]",< 1 nM,0.28 nM,3809 ng/ml*h/mpk,> 6000 ng/mL,< 10 nM,32.6 min,,,,2.41 nM,
"CN1CCN([C@@H]2CCCN(c3nnc(C(N)=O)c(Nc4ccc(N5CCN(CC6CCN(c7ccc(C(=O)N[C@H]8CCC(=O)NC8=O)nc7)C6)CC5)c(F)c4)n3)C2)C1=O (stereo partly drawn) [Compound 145, 5-((4-(4-((1-(6-(((S)-2,6-dioxopiperidin-3-yl)carbamoyl)pyridin-3-yl)pyrrolidin-3-yl)methyl)piperazin-1-yl)-3-fluorophenyl)amino)-3-((R)-3-(3-methyl-2-oxoimidazolin-1-yl)piperidin-1-yl)-1,2,4-triazin-6-carboxamide]",< 1 nM,0.56 nM,2704 ng/ml*h/mpk,,,> 30 min,13800 ng/mL,,,4.15 nM,
"CN1CCN([C@@H]2CCCN(c3nnc(C(N)=O)c(Nc4ccc(N5CCN(CC6CCN(c7ccc(C(=O)NC8CCC(=O)NC8=O)nc7)CC6)CC5)c(F)c4)n3)C2)C1=O (stereo partly drawn) [Compound 146, 5-((4-(4-((1-(6-((2,6-dioxopiperidin-3-yl)carbamoyl)pyridin-3-yl)piperidin-4-yl)methyl)piperazin-1-yl)-3-fluorophenyl)amino)-3-((R)-3-(3-methyl-2-oxoimidazolin-1-yl)piperidin-1-yl)-1,2,4-triazin-6-carboxamide]",< 1 nM,1.39 nM,,,< 10 nM,> 30 min,,,,1.73 nM,
"CN1CCN([C@@H]2CCCN(c3nnc(C(N)=O)c(Nc4ccc(N5CCN(CC6CCN(c7ccc(C(=O)NC8CCC(=O)NC8=O)c(F)c7)CC6)CC5)c(F)c4)n3)C2)C1=O (stereo partly drawn) [Compound 254, 5-((4-(4-((1-(4-((2,6-dioxopiperidin-3-yl)carbamoyl)-3-fluorophenyl)piperidin-4-yl)methyl)piperazin-1-yl)-3-fluorophenyl)amino)-3-((R)-3-(3-methyl-2-oxoimidazolidin-1-yl)piperidin-1-yl)-1,2,4-triazin-6-carboxamide]",< 1 nM,0.89 nM,2536 ng/ml*h/mpk,> 6000 ng/mL,,> 30 min,,,,,
"CN1CCN([C@@H]2CCCN(c3nnc(C(N)=O)c(Nc4ccc(N5CCN(CC6CCN(c7ccc(N8CCC(=O)NC8=O)cc7)CC6)CC5)c(F)c4)n3)C2)C1=O [Compound 255, (R)-5-((4-(4-((1-(4-(2,4-dioxotetrahydropyrimidin-1(2H)-yl)phenyl)piperidin-4-yl)methyl)piperazin-1-yl)-3-fluorophenyl)amino)-3-(3-(3-methyl-2-oxoimidazolidin-1-yl)piperidin-1-yl)-1,2,4-triazin-6-carboxamide]",< 1 nM,1.5 nM,1955 ng/ml*h/mpk,> 6000 ng/mL,< 10 nM,> 30 min,,,,< 0.26 nM,
C=CC(=O)N1CCC[C@@H](n2nc(-c3ccc(Oc4ccccc4)cc3)c3c(N)ncnc32)C1 [Ibrutinib],,,,,,,,,,,50.72%

# Further lines, with some results ahead:
DC50 (BTK),IC50 (OCI-LY10 cells),DNAUC ([1]; 30 mg/kg),"Cmax ([1]; 30 mg/kg, class symbols)",DC50 (BTK-C481S),half-life at 0.97 µg/mL [3],Cmax ([1]; 30 mg/kg),DNAUC ([1]; 100 mg/kg),Cmax ([1]; 100 mg/kg),SMILES,IC50 (Mino cells),TGI (%) [2]
< 1 nM,1.6 nM,,,,> 30 min,,,,"CN1CCN([C@@H]2CCCN(c3nnc(C(N)=O)c(Nc4ccc(N5CCN(CC6CCN(c7ccc(F)c(N8CCC(=O)NC8=O)c7)C6)CC5)c(F)c4)n3)C2)C1=O (stereo partly drawn) [Compound 256, 5-((4-(4-((1-(3-(2,4-dioxotetrahydropyrimidin-1(2H)-yl)-4-fluorophenyl)pyrrolidin-3-yl)methyl)piperazin-1-yl)-3-fluorophenyl)amino)-3-((R)-3-(3-methyl-2-oxoimidazolidin-1-yl)piperidin-1-yl)-1,2,4-triazin-6-carboxamide]",1.87 nM,
< 1 nM,0.96 nM,,,,> 30 min,,,,"COc1ccc(N2CCC(CN3CCN(c4ccc(Nc5nc(N6CCC[C@@H](N7CCN(C)C7=O)C6)nnc5C(N)=O)cc4F)CC3)C2)cc1N1CCC(=O)NC1=O (stereo partly drawn) [Compound 258, 5-((4-(4-((1-(3-(2,4-dioxotetrahydropyrimidin-1(2H)-yl)-4-methoxyphenyl)pyrrolidin-3-yl)methyl)piperazin-1-yl)-3-fluorophenyl)amino)-3-((R)-3-(3-methyl-2-oxoimidazolidin-1-yl)piperidin-1-yl)-1,2,4-triazin-6-carboxamide]",5.31 nM,
< 1 nM,0.61 nM,2223 ng/ml*h/mpk,> 6000 ng/mL,< 10 nM,> 30 min,,,,"COc1cc(N2CCC(CN3CCN(c4ccc(Nc5nc(N6CCC[C@@H](N7CCN(C)C7=O)C6)nnc5C(N)=O)cc4F)CC3)CC2)ccc1N1CCC(=O)NC1=O [Compound 259, (R)-5-((4-(4-((1-(4-(2,4-dioxotetrahydropyrimidin-1(2H)-yl)-3-methoxyphenyl)piperidin-4-yl)methyl)piperazin-1-yl)-3-fluorophenyl)amino)-3-(3-(3-methy 1-2-oxoimidazolidin-1-yl)piperidin-1-yl)-1,2,4-triazin-6-carboxamide]",5.58 nM,
,,,,,5.18 min,,631 ng/ml*h/mpk,4030 ng/mL,CN1CCN([C@@H]2CCCN(c3cnc(C(N)=O)c(Nc4ccc(C5CCN(CC6CCN(c7ccc8c(c7)C(=O)N(C7CCC(=O)NC7=O)C8=O)CC6)CC5)cc4)n3)C2)C1=O (some centres unmarked) [Compound b],,
